In PubChem BioAssay (NCI):
In brackets after ≈: the same amount, converted by molar mass.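 Test compounds were applied to cells in 96-well plates for 48 hours at 5 doses. GI50 is the concentration that inhibits growth by half. At the TGI there is no net growth.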 Where a SMILES comes first, the peptide text is derived from it. The star is where a group is joined. Boc = CC(C)(C)OC(=O)*; OcHex = C1CCC(O*)CC1

Columns and labels:
Assay in all cases: NCI-60 cell line screen, 48 h
786-0 renal = tested on: 786-0 renal
A498 renal = tested on: A498 renal
A549 NSCLC = tested on: A549 NSCLC
CAKI-1 renal = tested on: CAKI-1 renal
CCRF-CEM leukemia = tested on: CCRF-CEM leukemia
COLO 205 colon = tested on: COLO 205 colon
DU-145 prostate = tested on: DU-145 prostate
EKVX NSCLC = tested on: EKVX NSCLC
HCT-116 colon = tested on: HCT-116 colon
HL-60(TB) leukemia = tested on: HL-60(TB) leukemia
HOP-62 NSCLC = tested on: HOP-62 NSCLC
HS 578T breast = tested on: HS 578T breast
IGROV1 ovarian = tested on: IGROV1 ovarian
K-562 leukemia = tested on: K-562 leukemia
KM12 colon = tested on: KM12 colon
LOX IMVI melanoma = tested on: LOX IMVI melanoma
M14 melanoma = tested on: M14 melanoma
MALME-3M melanoma = tested on: MALME-3M melanoma
MCF7 breast = tested on: MCF7 breast
MDA-MB-231 breast = tested on: MDA-MB-231 breast
MDA-MB-435 = tested on: MDA-MB-435
MOLT-4 leukemia = tested on: MOLT-4 leukemia
NCI-H226 lung = tested on: NCI-H226 lung
NCI-H23 lung = tested on: NCI-H23 lung
NCI-H460 lung = tested on: NCI-H460 lung
NCI-H522 lung = tested on: NCI-H522 lung
NCI/ADR-RES ovarian = tested on: NCI/ADR-RES ovarian
OVCAR-3 ovarian = tested on: OVCAR-3 ovarian
OVCAR-4 ovarian = tested on: OVCAR-4 ovarian
OVCAR-8 ovarian = tested on: OVCAR-8 ovarian
PC-3 prostate = tested on: PC-3 prostate
RPMI-8226 leukemia = tested on: RPMI-8226 leukemia
RXF 393 renal = tested on: RXF 393 renal
SF-268 CNS = tested on: SF-268 CNS
SF-295 CNS = tested on: SF-295 CNS
SF-539 CNS = tested on: SF-539 CNS
SK-MEL-2 melanoma = tested on: SK-MEL-2 melanoma
SK-MEL-28 melanoma = tested on: SK-MEL-28 melanoma
SK-MEL-5 melanoma = tested on: SK-MEL-5 melanoma
SK-OV-3 ovarian = tested on: SK-OV-3 ovarian
SN12C renal = tested on: SN12C renal
SNB-19 CNS = tested on: SNB-19 CNS
SW-620 colon = tested on: SW-620 colon
T-47D breast = tested on: T-47D breast
TK-10 renal = tested on: TK-10 renal
U251 CNS = tested on: U251 CNS
UACC-257 melanoma = tested on: UACC-257 melanoma
UACC-62 melanoma = tested on: UACC-62 melanoma
UO-31 renal = tested on: UO-31 renal
BT-549 breast = tested on: BT-549 breast
HOP-92 NSCLC = tested on: HOP-92 NSCLC
SNB-75 CNS = tested on: SNB-75 CNS

For COc1ccc(Nc2cnc3cc(N)cc(N)c3n2)cc1, the GI50 (786-0 renal) was 18.2 µM, the TGI (786-0 renal) was 42.9 µM and the GI50 (A498 renal) was 16.9 µM. It also gave a TGI (A498 renal) of 59.1 µM, a GI50 (A549 NSCLC) of 26.8 µM and a TGI (A549 NSCLC) of over 100 µM. The GI50 (CAKI-1 renal) was 23 µM, the TGI (CAKI-1 renal) was 64.9 µM and the GI50 (CCRF-CEM leukemia) was 14.8 µM. The TGI (CCRF-CEM leukemia) was 89.7 µM, the GI50 (COLO 205 colon) was 30.5 µM and the TGI (COLO 205 colon) was over 100 µM. The GI50 (DU-145 prostate) was 30.4 µM, the TGI (DU-145 prostate) was over 100 µM and the GI50 (EKVX NSCLC) was 22 µM. For the same compound, the TGI (EKVX NSCLC) was 42.6 µM, the GI50 (HCT-116 colon) was 23.8 µM and the TGI (HCT-116 colon) was 54.1 µM. The GI50 (HL-60(TB) leukemia) was 5.49 µM, the TGI (HL-60(TB) leukemia) was 73.7 µM and the GI50 (HOP-62 NSCLC) was 24.4 µM. The TGI (HOP-62 NSCLC) was 51.9 µM, the GI50 (HS 578T breast) was 21.9 µM and the TGI (HS 578T breast) was 63.3 µM. The GI50 (IGROV1 ovarian) was 17.6 µM, the TGI (IGROV1 ovarian) was 37.7 µM and the GI50 (K-562 leukemia) was 5.69 µM. The TGI (K-562 leukemia) was over 100 µM, the GI50 (KM12 colon) was 18.4 µM and the TGI (KM12 colon) was 36.2 µM. The GI50 (LOX IMVI melanoma) was 18.8 µM, the TGI (LOX IMVI melanoma) was 40.5 µM and the GI50 (M14 melanoma) was 14.5 µM. The TGI (M14 melanoma) was 28 µM, the GI50 (MALME-3M melanoma) was 15.2 µM and the TGI (MALME-3M melanoma) was 39.4 µM. The GI50 (MCF7 breast) was 18.4 µM, the TGI (MCF7 breast) was 40.9 µM and the GI50 (MDA-MB-231 breast) was 10.5 µM. It also gave a TGI (MDA-MB-231 breast) of 26.2 µM, a GI50 (MDA-MB-435) of 16.7 µM and a TGI (MDA-MB-435) of 33.8 µM. It also gave a GI50 (MOLT-4 leukemia) of 12.5 µM, a TGI (MOLT-4 leukemia) of over 100 µM and a GI50 (NCI-H226 lung) of 17.2 µM. For the same compound, the TGI (NCI-H226 lung) was 45.8 µM, the GI50 (NCI-H23 lung) was 2.02 µM and the TGI (NCI-H23 lung) was 7.65 µM. It also gave a GI50 (NCI-H460 lung) of 21.9 µM, a TGI (NCI-H460 lung) of 53.5 µM and a GI50 (NCI-H522 lung) of 16.6 µM. The TGI (NCI-H522 lung) was 43.6 µM, the GI50 (NCI/ADR-RES ovarian) was 16.4 µM and the TGI (NCI/ADR-RES ovarian) was 35 µM. For the same compound, the GI50 (OVCAR-3 ovarian) was 11.4 µM, the TGI (OVCAR-3 ovarian) was 27.3 µM and the GI50 (OVCAR-4 ovarian) was 21.4 µM. For the same compound, the TGI (OVCAR-4 ovarian) was 48.5 µM, the GI50 (OVCAR-8 ovarian) was 14.1 µM and the TGI (OVCAR-8 ovarian) was 29.4 µM. For the same compound, the GI50 (PC-3 prostate) was 14.7 µM, the TGI (PC-3 prostate) was 27.9 µM and the GI50 (RPMI-8226 leukemia) was 4.53 µM. It also gave a TGI (RPMI-8226 leukemia) of 25.7 µM, a GI50 (RXF 393 renal) of 17.6 µM and a TGI (RXF 393 renal) of 39.6 µM. For the same compound, the GI50 (SF-268 CNS) was 17.7 µM, the TGI (SF-268 CNS) was 39.8 µM and the GI50 (SF-295 CNS) was 22.3 µM. It also gave a TGI (SF-295 CNS) of 48.7 µM, a GI50 (SF-539 CNS) of 17.3 µM and a TGI (SF-539 CNS) of 36.6 µM. It also gave a GI50 (SK-MEL-2 melanoma) of 14.4 µM, a TGI (SK-MEL-2 melanoma) of 32 µM and a GI50 (SK-MEL-28 melanoma) of 21.2 µM. The TGI (SK-MEL-28 melanoma) was 44.8 µM, the GI50 (SK-MEL-5 melanoma) was 16 µM and the TGI (SK-MEL-5 melanoma) was 29.8 µM. For the same compound, the GI50 (SK-OV-3 ovarian) was 28.2 µM, the TGI (SK-OV-3 ovarian) was 80.9 µM and the GI50 (SN12C renal) was 15.6 µM. For the same compound, the TGI (SN12C renal) was 37 µM, the GI50 (SNB-19 CNS) was 32.8 µM and the TGI (SNB-19 CNS) was over 100 µM. The GI50 (SW-620 colon) was 21.8 µM, the TGI (SW-620 colon) was 52.8 µM and the GI50 (T-47D breast) was 27 µM. For the same compound, the TGI (T-47D breast) was 75.5 µM, the GI50 (TK-10 renal) was 23.7 µM and the TGI (TK-10 renal) was 76.2 µM. It also gave a GI50 (U251 CNS) of 14.9 µM, a TGI (U251 CNS) of 35.5 µM and a GI50 (UACC-257 melanoma) of 19.4 µM. For the same compound, the TGI (UACC-257 melanoma) was 45.9 µM, the GI50 (UACC-62 melanoma) was 14.6 µM and the TGI (UACC-62 melanoma) was 28.8 µM. For the same compound, the GI50 (UO-31 renal) was 25.7 µM and the TGI (UO-31 renal) was 98.5 µM.

CC(C)CC(NC(=O)OC(C)(C)C)C(=O)NC(CCC(=O)OC1CCCCC1)C(N)=O (stereo not drawn) (Boc-Leu-Glu(OcHex)-NH2; configuration not given here) was tested, and the GI50 (BT-549 breast) was 63.5 µg/mL (≈ 144 µM), the GI50 (HOP-92 NSCLC) was 12.5 µg/mL (≈ 28.4 µM) and the TGI (HOP-92 NSCLC) was 36.7 µg/mL (≈ 83 µM). The GI50 (K-562 leukemia) was 51.9 µg/mL, the GI50 (M14 melanoma) was 78.8 µg/mL and the GI50 (MALME-3M melanoma) was 42.9 µg/mL. For the same compound, the GI50 (MOLT-4 leukemia) was 62.9 µg/mL, the GI50 (NCI-H522 lung) was 12.2 µg/mL and the TGI (NCI-H522 lung) was 45.9 µg/mL. The GI50 (SK-MEL-28 melanoma) was 44.8 µg/mL, the GI50 (SK-OV-3 ovarian) was 92.7 µg/mL and the GI50 (SNB-75 CNS) was 71.5 µg/mL (≈ 162 µM). The GI50 (UACC-257 melanoma) was 51.2 µg/mL, the GI50 (UACC-62 melanoma) was 94.8 µg/mL and the GI50 (UO-31 renal) was 94.8 µg/mL.
